From patent US11396643B2, “Compositions comprising bacterial strains and use thereof in controlling pathogenic microorganisms” (Better Air International Limited, priority 2018, dated 2022) come the findings set out here.

Experiment in all cases: Agar well diffusion antifungal assay
Holding throughout (type): cell-based
Conditions in all cases: PDA plates, 25° C. 72 h
(In general: In agar diffusion tests the substance spreads into inoculated agar from a disc or well.)

Experiment [1] deals with Alternaria alternata (Fries) Keissler (ATCC MYA-4642). On the procedure: (§1) Brain Heart Infusion (BHI) Agar was used for the antagonism against pathogenic microorganisms while the Potato Dextrose Agar (PDA) was used for evaluation against molds. […] Molds were prepared using PDA at 25° C. with 85% HR for 7 days. […] The same amount of mold spore suspension was inoculated on PDA.

The subject of experiment [2] is Cladosporium sphaerospermum Penzig (ATCC MYA-4645). On the procedure:
as §1

For experiment [3], the system named is Penicillium chrysogenum Thom (ATCC MYA-4644). Here is the method: as §1

As for `OO` [Hydrogen peroxide 10%, Hydrogen peroxide], the “Inhibition zone, Alternaria alternata (Fries) Keissler (ATCC MYA-4642)” value in experiment [1] is 8 mm. Also, the “Inhibition zone, Cladosporium sphaerospermum Penzig (ATCC MYA-4645)” value in experiment [2] came out at 12 mm. The “Inhibition zone, Penicillium chrysogenum Thom (ATCC MYA-4644)” value in experiment [3] turned out to be 10 mm.
